Measurements from patent publication US20170016886A1, “INDUCED PLURIPOTENT STEM CELL MODEL OF NOONAN SYNDROME AND USE THEREOF” (KOREA ADVANCED INSTITUTE OF SCIENCE AND TECHNOLOGY, priority 2014, published 2017).

Columns and labels:
[1] = tested on: NS-iPSCs (Noonan syndrome patient-derived induced pluripotent stem cells); test: Chemically directed differentiation of NS-iPSCs into embryoid bodies and neural rosettes, cell morphology; format: cell-based, human; details: stepwise treatment with both dorsomorphin (5 μM) and SB431542 (10 μM) together; NS-iPSC #4 and #5; compared with natural differentiation and normal control (H9, CRL12)
Description: Due to the abnormality in the signal transduction system in Noonan syndrome, EBs and neural rosettes naturally differentiated from NS-iPSCs were abnormally developed. To overcome this problem, the present inventors induced chemically directed differentiation of EBs and neural rosettes from NS-iPSCs by using dorsomorphin (DM) and SB431542 according to the schematic diagram of FIG. 18 (FIG. 18 and Table 6). Particularly, the colonies of NS-iPSC #4 and NS-iPSC #5 induced by the same manner as described in Example <2-1> were quartered by using 1 ml insulin syringe. The quartered NS-iPSCs were loaded on ultra-low attachment dish (SPL life sciences Co., Ltd, Korea), which were resuspended in 4 ml of embryoid body differentiation media which was the DMEM/F12 (Invitrogen, USA) containing 10% serum replacement (SR; GIBCO, USA). The resuspended NS-iPSCs were cultured for 4 days to induce the differentiation into NS-EBs. Then, the differentiated NS-EBs were obtained and cultured for 4˜5 days on the matrigel (1:50, BD biosciences, USA) coated dish in the neural rosette media which consists of DMEM/F12 supplemented with N2, B27 and […] of bFGF (FGF2, R&D systems, USA). The generated Noonan syndrome-derived neural rosettes were mechanically selected and placed on the fibronectin (BD biosciences, USA) coated dish, followed by culture in the neural rosette media for 4˜5 days. […]

[2] = tested on: neural rosettes chemically differentiated from NS-iPSCs; test: mRNA expression of ectoderm, neural rosette and neural marker genes in neural rosettes chemically differentiated from NS-iPSCs (RT-PCR, q-PCR); format: cell-based, human; details: stepwise treatment with both dorsomorphin (5 μM) and SB431542 (10 μM) together, versus normal control (H9, CRL12)
Procedure: To investigate whether or not the neural marker genes were normally expressed in the neural rosettes chemically differentiated from NS-iPSCs, the mRNA expression levels of the ectoderm genes PAX6, ZIC1, NESTIN, and VIMENTIN, and the NR genes PLZF, NR2F1, HES5, and DACH1, and the neural genes TUJ1, ASCL1, and NF1 were measured in the chemically differentiated NS-EBs. Particularly, the neural rosettes chemically differentiated from NS-iPSCs by the same manner as described in Example <6-1> were prepared. […] The expressions of those genes were observed by RT-PCR at mRNA level. As for the normal control, the neural rosettes chemically differentiated from H9 cell line and CRL12 in Example <6-1> were used. […] The expression of NR2F1 gene was measured by q-PCR at mRNA level. As the control group for the normalization of the expression level, GAPDH gene was used so that the expression was also measured. ΔCt value of each gene was calculated by the difference between Ct value of GAPDH and Ct value of NR2F1 gene. As for the control, the human normal embryonic stem cell line H9 and the human normal fibroblast-derived iPSCs (CRL12) were induced into neural rosettes via chemical treatments as described in Example <6-1>. The expressions of those neural rosettes were compared with the gene expression of NS-NR. The results are presented by the fold change calculated by the mathematical formula 1 above.

NC(=O)c1ccc(-c2nc(-c3ccc4c(c3)OCO4)c(-c3ccccn3)[nH]2)cc1 [SB431542]
cell morphology of the chemically differentiated EBs and neural rosettes [1]: recovered to a normal shape
expression of NR2F1 ([2]; mRNA level in NS neural rosettes): decreased
expressions of ectoderm, neural rosette, and neural marker genes ([2]; mRNA level): adjusted to the nearly normal level
